# Experimental data: US12029814B1, “Formulation of ear drops and methods for delivery thereof for treating upper respiratory infections” (priority 2023, dated 2024)
# Tests used:
# Type in all cases: cell-based
# SARS-COV-2 BA.1 = tested on: SARS-COV-2 BA.1
# SARS-COV-2 XBB = tested on: SARS-COV-2 XBB
# SARS-COV-2 BA.5 = tested on: SARS-COV-2 BA.5
# SARS-COV-2 XBB1.5 = tested on: SARS-COV-2 XBB1.5
# [1] = tested on: original WA1 viral strain of SARS-COV-2; assay: in vitro infectivity of epithelial cells expressing ACE-2 and TMPRSS-2, virus-NP protein in culture media; conditions: MOI 0.01
# SARS-COV-2 BA.2 = tested on: SARS-COV-2 BA.2
substance,measurement,setting,value
hemin,cellular protection against SARS-COV-2 BA.1 infection,SARS-COV-2 BA.1,protected cells
same,inhibition of SARS-COV-2 BA.1 (dose response),SARS-COV-2 BA.1,dose-dependent inhibition
same,replication of SARS-COV-2 XBB,SARS-COV-2 XBB,significantly suppressed replication
same,replication of SARS-COV-2 BA.5,SARS-COV-2 BA.5,significantly suppressed replication
same,replication of SARS-COV-2 XBB1.5,SARS-COV-2 XBB1.5,significantly suppressed replication
same,"SARS-COV-2 infection, original WA1 viral strain",[1],markedly suppressed
same,replication of SARS-COV-2 BA.2,SARS-COV-2 BA.2,significantly suppressed replication
